From US20250171413A1, “ANTIVIRAL INDOLINYL COMPOUNDS AND USES THEREOF” (Gilead Sciences, Inc., priority 2023, published 2025)
Where two headings read alike, the source gives them in different places.

Test system: HSV-2 virus (MS strain)
Assay: HSV-2 Cellomics Assay (immunofluorescence of HSV protein gD)
Type: cell-based
Method: Compounds were tested for their ability to inhibit HSV-2 replication by monitoring the expression of the HSV protein gD using a high-throughput immunofluorescence-based assay. 10-dose, 3-fold serial dilutions of compounds were prepared at starting concentrations of 0.2 or 2 mM in 100% DMSO. 250 nl of compounds were spotted in quadruplicates onto black collagen-coated 384-well microplates with clear bottom (Greiner cat #781956) using a Labcyte ECHO acoustic dispenser. The final starting concentration in the assay was either […]. DMSO (no compound) and pritelivir were included on each microplate as negative and positive controls, respectively.
ARPE-19 cells (ATCC cat #CRL-2302) were maintained DMEM/F-12 Glutamax medium (Thermo Fisher Scientific cat #10565018) supplemented with 10% FBS (Corning cat #35-011-CV) and 1% Penicillin-Streptomycin (cat #30-002-CI). Prior to confluence, cells were transferred to a centrifuge tube and spun for 5 minutes at 1000 rpm. Cells were resuspended in assay medium (DMEM/F-12 Glutamax, 2% FBS, 1% Penicillin-Streptomycin) and counted. Cell density was adjusted to 150,000 cells/ml and infected with HSV-2 virus (MS strain, ATCC cat #VR-540) at a MOI of 0.06 in a 50 ml conical tube for 1 hour under constant rocking. Cells were then spun for 5 minutes at 1000 rpm and the media replaced with assay medium containing either 2% FBS or 10% human serum (EMD Millipore cat #S1-100ML). 50 μl of the infection suspension were added into microplate wells that were pre-spotted with compounds (7,500 cells per well). Plates were incubated for 16 hours at 37° C.
Cell culture medium was aspirated using a Biomek Fx and 50 μl of a paraformaldehyde solution (Electron Microscopy Sciences cat #15712-5) diluted to 4% in DPBS (Corning cat #21-031-CM) were added per well. After a 30-minute incubation at room temperature, plates were washed 4 times with 100 μl/well of PBS using a Biotek plate washer. A 1:500 solution of primary antibody (anti-HSV gD, Virusys cat #P1103) was prepared in permeabilization buffer (Invitrogen cat #00-8333-56) and 50 μl were added into wells. After a 1-hour incubation at room temperature, 50 μl of a 1:1000 solution of secondary antibody (Alexa Fluor 488 goat anti-mouse, Thermo Fisher Scientific cat #A11001) and DAPI (Thermo Fisher Scientific cat #62248) in permeabilization buffer were added into wells and plates were incubated in the dark at room temperature for 1 hour. Plates were washed 4 times again and 50 μl of DPBS were added to all wells prior to sealing the plates with a black adhesive seal. Fluorescence was measured on a Cellomics plate reader.
Data analysis was carried out using the Thermo Scientific HCS Studio software. Briefly, cells were identified using the DAPI nuclear stain and thresholds were set to filter cells out based on shape and size. A second threshold based on green fluorescence intensity (detection of HSV-2 gD) was set to identify HSV-2 infected cells. Data was reported as the average fluorescence intensity of HSV-2 infected cells. EC50 values were defined as the compound concentration that caused a 50% decrease in the average fluorescence intensity and was calculated using a sigmoidal dose-response model to generate curve fits.

[1] = Human alphaherpesvirus 2, HSV-2 (MS strain, MOI 0.06) infected ARPE-19 cells, assay medium containing 2% FBS, 16 hours, read-out: EC50-HSV2-FBS
[2] = Human alphaherpesvirus 2, HSV-2 (MS strain, MOI 0.06) infected ARPE-19 cells, assay medium containing 10% human serum, 16 hours, read-out: EC50-HSV2-10% Human Serum

EC50 [1] [nM] | EC50 [2] [nM] | Structure (SMILES) | EC50 (Human alphaherpesvirus 2, ARPE-19, read-out: EC50 in HSV-2 Cellomics assay) [nM]
211 | 737 | CN=S(C)(=O)c1cc2c(cc1F)CCN2C(=O)[C@@H]1Cc2ccc(-c3ccccn3)cc2C1 (stereo partly drawn) [Example 22, (5-fluoro-1-((R)-5-(pyridin-2-yl)-2,3-dihydro-1H-indene-2-carbonyl)indolin-6-yl)(methyl)(methylimino)-l6-sulfanone] | –
178 | 474 | CC[S@](=N)(=O)c1cc2c(cc1F)CCN2C(=O)[C@H]1Cc2cc(-c3ccccn3)ccc2O1 [Example 5, (S)-ethyl(5-fluoro-1-((R)-5-(pyridin-2-yl)-2,3-dihydrobenzofuran-2-carbonyl)indolin-6-yl)(imino)-λ^6-sulfanone] | –
73 | 258 | CC[S@](=N)(=O)c1cc2c(cc1F)CCN2C(=O)[C@@H]1Cc2ccc(-c3ccccn3)cc2C1 [Example 3, (S)-ethyl(5-fluoro-1-((R)-5-(pyridin-2-yl)-2,3-dihydro-1H-indene-2-carbonyl)indolin-6-yl)(imino)-λ^6-sulfanone] | –
72 | 203 | CCS(=N)(=O)c1cc2c(cc1F)CC(C)N2C(=O)[C@@H]1Cc2ccc(-c3ccccn3)cc2C1 (stereo partly drawn) [Example 25, ethyl(5-fluoro-2-methyl-1-((R)-5-(pyridin-2-yl)-2,3-dihydro-1H-indene-2-carbonyl)indolin-6-yl)(imino)-λ^6-sulfanone] | –
98 | 949 | N=[S@@](=O)(c1cc2c(cc1F)CCN2C(=O)[C@@H]1Cc2ccc(-c3ccccn3)cc2C1)C1CC1 [Example 21, (S)-cyclopropyl(5-fluoro-1-((R)-5-(pyridin-2-yl)-2,3-dihydro-1H-indene-2-carbonyl)indolin-6-yl)(imino)-λ^6-sulfanone] | –
30 | 92 | CC[S@@](=N)(=O)c1cc2c(cc1F)C[C@@H](C)N2C(=O)[C@@H]1Cc2ccc(-c3ccccn3)cc2C1 [Example 26, (R)-ethyl((R)-5-fluoro-2-methyl-1-((R)-5-(pyridin-2-yl)-2,3-dihydro-1H-indene-2-carbonyl)indolin-6-yl)(imino)-λ^6-sulfanone] | –
92 | 208 | COCC[S@](=N)(=O)c1cc2c(cc1F)CCN2C(=O)[C@H]1Cc2cc(-c3ccccn3)ccc2O1 [Example 18, (S)-(5-fluoro-1-((R)-5-(pyridin-2-yl)-2,3-dihydrobenzofuran-2-carbonyl)indolin-6-yl)(imino)(2-methoxyethyl)-λ^6-sulfanone] | –
– | – | Cc1nc(N(C)C(=O)Cc2ccc(-c3ccccn3)cc2)sc1S(N)(=O)=O [pritelivir, reference compound] | 150
55 | 113 | CC[S@](=N)(=O)c1cc2c(cc1F)C[C@@H](C)N2C(=O)[C@@H]1Cc2ccc(-c3ccccn3)cc2C1 [Example 27, (S)-ethyl((R)-5-fluoro-2-methyl-1-((R)-5-(pyridin-2-yl)-2,3-dihydro-1H-indene-2-carbonyl)indolin-6-yl)(imino)-λ^6-sulfanone] | –
52 | 218 | CCC[S@](=N)(=O)c1cc2c(cc1F)CCN2C(=O)[C@@H]1Cc2ccc(-c3ccccn3)cc2C1 [Example 9, (S)-(5-fluoro-1-((R)-5-(pyridin-2-yl)-2,3-dihydro-1H-indene-2-carbonyl)indolin-6-yl)(imino)(propyl)-λ^6-sulfanone] | –
18 | 71 | CC[S@@](=N)(=O)c1cc2c(cc1F)CCN2C(=O)[C@@H]1Cc2ccc(-c3ccccn3)cc2C1 [Example 2, (R)-ethyl(5-fluoro-1-((R)-5-(pyridin-2-yl)-2,3-dihydro-1H-indene-2-carbonyl)indolin-6-yl)(imino)-λ^6-sulfanone] | –
16 | 77 | CCC[S@@](=N)(=O)c1cc2c(cc1F)CCN2C(=O)[C@@H]1Cc2ccc(-c3ccccn3)cc2C1 [Example 8, (R)-(5-fluoro-1-((R)-5-(pyridin-2-yl)-2,3-dihydro-1H-indene-2-carbonyl)indolin-6-yl)(imino)(propyl)-λ^6-sulfanone] | –
25 | 54 | COCC[S@@](=N)(=O)c1cc2c(cc1F)CCN2C(=O)[C@@H]1Cc2ccc(-c3ccccn3)cc2C1 [Example 14, (R)-(5-fluoro-1-((R)-5-(pyridin-2-yl)-2,3-dihydro-1H-indene-2-carbonyl)indolin-6-yl)(imino)(2-methoxyethyl)-λ^6-sulfanone] | –
231 | 2380 | CCCC(=O)NS(=O)(=O)c1cc2c(cc1F)C[C@@H](C)N2C(=O)[C@@H]1Cc2ccc(-c3ccccn3)cc2C1 [Example 32, N—(((R)-5-fluoro-2-methyl-1-((R)-5-(pyridin-2-yl)-2,3-dihydro-1H-indene-2-carbonyl)indolin-6-yl)sulfonyl)butyramide] | –
40 | 81 | CC[S@@](=N)(=O)c1cc2c(cc1F)CCN2C(=O)[C@H]1Cc2cc(-c3ccccn3)ccc2O1 [Example 6, (R)-ethyl(5-fluoro-1-((R)-5-(pyridin-2-yl)-2,3-dihydrobenzofuran-2-carbonyl)indolin-6-yl)(imino)-λ^6-sulfanone] | –
155 | 522 | CN=[S@](C)(=O)c1cc2c(cc1F)CCN2C(=O)[C@@H]1Cc2ccc(-c3ccccn3)cc2C1 [Example 23, (R)-(5-fluoro-1-((R)-5-(pyridin-2-yl)-2,3-dihydro-1H-indene-2-carbonyl)indolin-6-yl)(methyl)(methylimino)-λ^6-sulfanone] | –
42 | 87 | COCC[S@](=N)(=O)c1cc2c(cc1F)CCN2C(=O)[C@@H]1Cc2ccc(-c3ccccn3)cc2C1 [Example 15, (S)-(5-fluoro-1-((R)-5-(pyridin-2-yl)-2,3-dihydro-1H-indene-2-carbonyl)indolin-6-yl)(imino)(2-methoxyethyl)-λ6-sulfanone] | –
56 | 453 | N=S(=O)(c1cc2c(cc1F)CCN2C(=O)[C@@H]1Cc2ccc(-c3ccccn3)cc2C1)C1CC1 (stereo partly drawn) [Example 19, cyclopropyl(5-fluoro-1-((R)-5-(pyridin-2-yl)-2,3-dihydro-1H-indene-2-carbonyl)indolin-6-yl)(imino)-λ^6-sulfanone] | –
10 | 570 | CCNS(=O)(=O)c1cc2c(cc1F)CCN2C(=O)[C@H]1Cc2cc(-c3ccccn3)ccc2O1 [Example 31, (R)—N-ethyl-5-fluoro-1-(5-(pyridin-2-yl)-2,3-dihydrobenzofuran-2-carbonyl)indoline-6-sulfonamide] | –
124 | 406 | CCC[S@](=N)(=O)c1cc2c(cc1F)CCN2C(=O)[C@H]1Cc2cc(-c3ccccn3)ccc2O1 [Example 11, (S)-(5-fluoro-1-((R)-5-(pyridin-2-yl)-2,3-dihydrobenzofuran-2-carbonyl)indolin-6-yl)(imino)(propyl)-λ^6-sulfanone] | –
35 | 98 | CCC[S@@](=N)(=O)c1cc2c(cc1F)CCN2C(=O)[C@H]1Cc2cc(-c3ccccn3)ccc2O1 [Example 12, (R)-(5-fluoro-1-((R)-5-(pyridin-2-yl)-2,3-dihydrobenzofuran-2-carbonyl)indolin-6-yl)(imino)(propyl)-λ^6-sulfanone] | –
33 | 248 | N=[S@](=O)(c1cc2c(cc1F)CCN2C(=O)[C@@H]1Cc2ccc(-c3ccccn3)cc2C1)C1CC1 [Example 20, (R)-cyclopropyl(5-fluoro-1-((R)-5-(pyridin-2-yl)-2,3-dihydro-1H-indene-2-carbonyl)indolin-6-yl)(imino)-λ^6-sulfanone] | –
39 | 59 | COCC[S@@](=N)(=O)c1cc2c(cc1F)CCN2C(=O)[C@H]1Cc2cc(-c3ccccn3)ccc2O1 [Example 17, (R)-(5-fluoro-1-((R)-5-(pyridin-2-yl)-2,3-dihydrobenzofuran-2-carbonyl)indolin-6-yl)(imino)(2-methoxyethyl)-λ^6-sulfanone] | –
